# Publication PMC7769008 (Journal of medicinal chemistry, 2020)
# Settings: pH 7.4
row,Structure (SMILES),PAMPA
1,"CC(=O)NCCCn1c(=O)c2cc(F)ccc2n2c(=S)[nH]nc12 [Compound 73, N-(3-(7-Fluoro-5-oxo-1-thioxo-1,2-dihydro-[1,2,4]triazolo[4,3-a]-quinazolin-4(5H)-yl)propyl)acetamide]",18.0 ×10⁻⁶ cm/s
2,"O=C(NCCCn1c(=O)c2cc(F)ccc2n2c(=S)[nH]nc12)c1ccccc1 [Compound 74, N-(3-(7-Fluoro-5-oxo-1-thioxo-1,2-dihydro-[1,2,4]triazolo[4,3-a]-quinazolin-4(5H)-yl)propyl)benzamide]",267 ×10⁻⁶ cm/s
3,"O=c1c2cc(F)ccc2n2c(=S)[nH]nc2n1CC1CC1 [Compound 79, 4-(Cyclopropylmethyl)-7-fluoro-1-thioxo-2,4-dihydro-[1,2,4]-triazolo[4,3-a]quinazolin-5(1H)-one]",46.0 ×10⁻⁶ cm/s
4,"O=c1c2cc(F)ccc2n2c(=S)[nH]nc2n1CCc1ccc(Cl)cc1 [Compound 82, 4-(4-Chlorophenethyl)-7-fluoro-1-thioxo-2,4-dihydro-[1,2,4]-triazolo[4,3-a]quinazolin-5(1H)-one]",<1 ×10⁻⁶ cm/s
5,"O=c1c2cc(F)ccc2n2c(=S)[nH]nc2n1CCc1cccnc1 [Compound 84, 7-Fluoro-4-(2-(pyridin-3-yl)ethyl)-1-thioxo-2,4-dihydro-[1,2,4]-triazolo[4,3-a]quinazolin-5(1H)-one]",<1 ×10⁻⁶ cm/s
6,"CC(C)(C)OC(=O)N1CC(CCn2c(=O)c3cc(F)ccc3n3c(=S)[nH]nc23)C1 [Compound 86, tert-Butyl 3-(2-(7-fluoro-5-oxo-1-thioxo-1,2-dihydro-[1,2,4]-triazolo[4,3-a]quinazolin-4(5H)-yl)ethyl)azetidine-1-carboxylate]",229 ×10⁻⁶ cm/s
7,"O=c1c2cc(F)ccc2n2c(=S)[nH]nc2n1CCN1CCCCC1 [Compound 88, 7-Fluoro-4-(2-(piperidin-1-yl)ethyl)-1-thioxo-2,4-dihydro-[1,2,4]-triazolo[4,3-a]quinazolin-5(1H)-one]",358 ×10⁻⁶ cm/s
8,"O=c1c2cc(F)ccc2n2c(=S)[nH]nc2n1CCN1CCC(F)(F)CC1 [Compound 89, 4-(2-(4,4-Difluoropiperidin-1-yl)ethyl)-7-fluoro-1-thioxo-2,4-di-hydro-[1,2,4]triazolo[4,3-a]quinazolin-5(1H)-one]",234 ×10⁻⁶ cm/s
9,"O=c1c2cc(F)ccc2n2c(=S)[nH]nc2n1CCN1CCOCC1 [Compound 90, 7-Fluoro-4-(2-morpholinoethyl)-1-thioxo-2,4-dihydro-[1,2,4]-triazolo[4,3-a]quinazolin-5(1H)-one]",67.0 ×10⁻⁶ cm/s
10,"O=c1c2cc(F)ccc2n2c(=S)[nH]nc2n1CCC1CCC(F)(F)CC1 [Compound 93, 4-(2-(4,4-Difluorocyclohexyl)ethyl)-7-fluoro-1-thioxo-2,4-dihydro-[1,2,4]triazolo[4,3-a]quinazolin-5(1H)-one]",201 ×10⁻⁶ cm/s
11,"CC(C)(C)OC(=O)NCCCCCC(=O)NCCCn1c(=O)c2cc(F)ccc2n2c(=S)[nH]nc12 [Compound 101, tert-Butyl (6-((3-(7-fluoro-5-oxo-1-thioxo-1,2-dihydro-[1,2,4]-triazolo[4,3-a]quinazolin-4(5H)-yl)propyl)amino)-6-oxohexyl)-carbamate]",405 ×10⁻⁶ cm/s
12,"O=C(O)CCC(=O)NCCCn1c(=O)c2cc(F)ccc2n2c(=S)[nH]nc12 [Compound 106, 4-((3-(7-Fluoro-5-oxo-1-thioxo-1,2-dihydro-[1,2,4]triazolo[4,3-a]quinazolin-4(5H)-yl)propyl)amino)-4-oxobutanoic Acid]",<1 ×10⁻⁶ cm/s
13,"NS(=O)(=O)CCCC(=O)NCCCn1c(=O)c2cc(F)ccc2n2c(=S)[nH]nc12 [Compound 107, N-(3-(7-Fluoro-5-oxo-1-thioxo-1,2-dihydro-[1,2,4]triazolo[4,3-a]-quinazolin-4(5H)-yl)propyl)-4-sulfamoylbutanamide]",3.0 ×10⁻⁶ cm/s
14,"O=C(NCCCn1c(=O)c2cc(F)ccc2n2c(=S)[nH]nc12)C1CCCC1 [Compound 108, N-(3-(7-Fluoro-5-oxo-1-thioxo-1,2-dihydro-[1,2,4]triazolo[4,3-a]-quinazolin-4(5H)-yl)propyl)cyclopentanecarboxamide]",155 ×10⁻⁶ cm/s
15,"CC(C)(C)OC(=O)NC1CCC(C(=O)NCCCn2c(=O)c3cc(F)ccc3n3c(=S)[nH]nc23)CC1 (stereo not shown) [Compound 110, tert-Butyl (4-((3-(7-fluoro-5-oxo-1-thioxo-1,2-dihydro-[1,2,4]-triazolo[4,3-a]quinazolin-4(5H)-yl)propyl)carbamoyl)cyclohexyl)-carbamate]",330 ×10⁻⁶ cm/s
16,"O=C(NCCCn1c(=O)c2cc(F)ccc2n2c(=S)[nH]nc12)C1CCOCC1 [Compound 115, N-(3-(7-Fluoro-5-oxo-1-thioxo-1,2-dihydro-[1,2,4]triazolo[4,3-a]-quinazolin-4(5H)-yl)propyl)tetrahydro-2H-pyran-4-carboxamide]",8.0 ×10⁻⁶ cm/s

row,Structure (SMILES),PAMPA
1,"CN1CCN(CC(=O)NCCCn2c(=O)c3cc(F)ccc3n3c(=S)[nH]nc23)CC1 [Compound 117, N-(3-(7-Fluoro-5-oxo-1-thioxo-1,2-dihydro-[1,2,4]triazolo[4,3-a]-quinazolin-4(5H)-yl)propyl)-2-(4-methylpiperazin-1-yl)acetamide]",<1 ×10⁻⁶ cm/s
2,"O=C(CN1CCOCC1)NCCCn1c(=O)c2cc(F)ccc2n2c(=S)[nH]nc12 [Compound 118, N-(3-(7-Fluoro-5-oxo-1-thioxo-1,2-dihydro-[1,2,4]triazolo[4,3-a]-quinazolin-4(5H)-yl)propyl)-2-morpholinoacetamide]",<1 ×10⁻⁶ cm/s
3,"O=C(Cc1ccccc1)NCCCn1c(=O)c2cc(F)ccc2n2c(=S)[nH]nc12 [Compound 120, N-(3-(7-Fluoro-5-oxo-1-thioxo-1,2-dihydro-[1,2,4]triazolo[4,3-a]-quinazolin-4(5H)-yl)propyl)-2-phenylacetamide]",248 ×10⁻⁶ cm/s
4,"O=C(Cc1cccc(F)c1)NCCCn1c(=O)c2cc(F)ccc2n2c(=S)[nH]nc12 [Compound 122, N-(3-(7-Fluoro-5-oxo-1-thioxo-1,2-dihydro-[1,2,4]triazolo[4,3-a]-quinazolin-4(5H)-yl)propyl)-2-(3-fluorophenyl)acetamide]",364 ×10⁻⁶ cm/s
5,"O=C(Cc1cccc(Cl)c1)NCCCn1c(=O)c2cc(F)ccc2n2c(=S)[nH]nc12 [Compound 124, 2-(3-Chlorophenyl)-N-(3-(7-fluoro-5-oxo-1-thioxo-1,2-dihydro-[1,2,4]triazolo[4,3-a]quinazolin-4(5H)-yl)propyl)acetamide]",861 ×10⁻⁶ cm/s
6,"O=C(Cc1ccc(Br)cc1)NCCCn1c(=O)c2cc(F)ccc2n2c(=S)[nH]nc12 [Compound 125, 2-(4-Bromophenyl)-N-(3-(7-fluoro-5-oxo-1-thioxo-1,2-dihydro-[1,2,4]triazolo[4,3-a]quinazolin-4(5H)-yl)propyl)acetamide]",767 ×10⁻⁶ cm/s
7,"Cc1ccc(CC(=O)NCCCn2c(=O)c3cc(F)ccc3n3c(=S)[nH]nc23)cc1 [Compound 126, N-(3-(7-Fluoro-5-oxo-1-thioxo-1,2-dihydro-[1,2,4]triazolo[4,3-a]-quinazolin-4(5H)-yl)propyl)-2-(p-tolyl)acetamide]",621 ×10⁻⁶ cm/s
8,"COc1ccccc1CC(=O)NCCCn1c(=O)c2cc(F)ccc2n2c(=S)[nH]nc12 [Compound 128, N-(3-(7-Fluoro-5-oxo-1-thioxo-1,2-dihydro-[1,2,4]triazolo[4,3-a]-quinazolin-4(5H)-yl)propyl)-2-(2-methoxyphenyl)acetamide]",379 ×10⁻⁶ cm/s
9,"COc1ccc(CC(=O)NCCCn2c(=O)c3cc(F)ccc3n3c(=S)[nH]nc23)cc1 [Compound 130, N-(3-(7-Fluoro-5-oxo-1-thioxo-1,2-dihydro-[1,2,4]triazolo[4,3-a]-quinazolin-4(5H)-yl)propyl)-2-(4-methoxyphenyl)acetamide]",233 ×10⁻⁶ cm/s
10,"O=C(Cc1ccccc1C(F)(F)F)NCCCn1c(=O)c2cc(F)ccc2n2c(=S)[nH]nc12 [Compound 131, N-(3-(7-Fluoro-5-oxo-1-thioxo-1,2-dihydro-[1,2,4]triazolo[4,3-a]-quinazolin-4(5H)-yl)propyl)-2-(2-(trifluoromethyl)phenyl)-acetamide]",825 ×10⁻⁶ cm/s
11,"N#Cc1ccccc1CC(=O)NCCCn1c(=O)c2cc(F)ccc2n2c(=S)[nH]nc12 [Compound 133, 2-(2-Cyanophenyl)-N-(3-(7-fluoro-5-oxo-1-thioxo-1,2-dihydro-[1,2,4]triazolo[4,3-a]quinazolin-4(5H)-yl)propyl)acetamide]",156 ×10⁻⁶ cm/s
12,"CC(C)(C)OC(=O)Nc1ccc(CC(=O)NCCCn2c(=O)c3cc(F)ccc3n3c(=S)[nH]nc23)cc1 [Compound 135, tert-Butyl (4-(2-((3-(7-Fluoro-5-oxo-1-thioxo-1,2-dihydro-[1,2,4]-triazolo[4,3-a]quinazolin-4(5H)-yl)propyl)amino)-2-oxoethyl)-phenyl)carbamate]",910 ×10⁻⁶ cm/s
13,"O=C(Cc1ccccn1)NCCCn1c(=O)c2cc(F)ccc2n2c(=S)[nH]nc12 [Compound 136, N-(3-(7-Fluoro-5-oxo-1-thioxo-1,2-dihydro-[1,2,4]triazolo[4,3-a]-quinazolin-4(5H)-yl)propyl)-2-(pyridine-2-yl)acetamide]",68.0 ×10⁻⁶ cm/s
14,"O=C(Cc1cccnc1)NCCCn1c(=O)c2cc(F)ccc2n2c(=S)[nH]nc12 [Compound 137, N-(3-(7-Fluoro-5-oxo-1-thioxo-1,2-dihydro-[1,2,4]triazolo[4,3-a]-quinazolin-4(5H)-yl)propyl)-2-(pyridine-3-yl)acetamide]",21.0 ×10⁻⁶ cm/s
15,"O=C(Cc1ccncc1)NCCCn1c(=O)c2cc(F)ccc2n2c(=S)[nH]nc12 [Compound 138, N-(3-(7-Fluoro-5-oxo-1-thioxo-1,2-dihydro-[1,2,4]triazolo[4,3-a]-quinazolin-4(5H)-yl)propyl)-2-(pyridine-4-yl)acetamide]",<1 ×10⁻⁶ cm/s
